Data taken from patent publication US20220127584A1, “Reactive persulfides mediate sulfur respiration in mitochondria via sulfide:quinone oxidoreductase” (Bio-Xcelerator, Inc., priority 2020, published 2022).

Assays:
WT and Sqrdl^ΔN/ΔN MEFs = experiment: MEF mitochondrial membrane potential (JC-1 staining); format: cell-based, mouse
Experimental: To determine the membrane potential of mitochondria under several experimental conditions, JC-1 staining was performed according to the method previously reported ^37,38. Accumulation of the cell-permeable JC-1 probe (Abcam) in mitochondria depends on the membrane potential and is associated with a fluorescence emission shift from green (emission 527 nm) to red (emission 590 nm). Briefly, WT and Sqrdl^ΔN/ΔN MEFs, cultured in 8-well multichamber slides (Matsunami, Osaka, Japan) coated with collagen, were treated with mitochondrial ETC inhibitors (rotenone, atpenin A5, and antimycin A) the and ADP/ATP carrier inhibitor CATR^23 as described in the figure legends. For JC-1 staining, cultured cells were washed with HKRB buffer (20 mM HEPES, 103 mM NaCl, 4.77 mM KCl, 0.5 mM CaCl2, 1.2 mM MgCl2, 1.2 mM KH2PO4, 25 mM NaHCO3, and 15 mM glucose, pH 7.3), incubated with 20 μM JC-1 at 37° C. for 20 min, rinsed twice with HKRB buffer, and examined with a confocal laser scanning microscope (Nikon C2 plus, with NIS-Elements 5.01 software). ImageJ software was used for image processing and calculation of JC-1 fluorescence intensities.

[1] = tested on: fission yeast (Schizosaccharomyces pombe); format: cell-based; settings: SQR-deficient yeast (Δhmt2) compared with WT yeast; increasing/high concentrations
[2] = tested on: mitochondria from WT and Sqrdl^ΔN/ΔN MEFs; experiment: Membrane potential of isolated mitochondria (TMRE time-lapse imaging); set-up: species or system mouse; settings: for membrane potential of isolated mitochondria: supplementation to isolated MEF mitochondria
Experimental: MEF mitochondria were isolated by differential centrifugation. WT and Sqrdl^ΔN/ΔN MEFs were homogenized in the extraction buffer (10 mM Tris-HCl, 250 mM sucrose, and 0.5 mM EGTA, pH 7.4) with a Dounce homogenizer (Teflon glass) and were centrifuged at 2,000 g at 4° C. for 5 min to remove nuclei and cell debris. The supernatants were centrifuged at 12,000 g at 4° C. for 10 min, and mitochondrial pellets were washed three times with buffer and kept at −80° C. until use.
To determine the membrane potential in isolated mitochondria under several experimental conditions, TMRE staining was performed according to the method previously reported^40. The TMRE fluorescence intensity at a maximum emission of 574 nm depends on the mitochondrial membrane potential. Briefly, mitochondria from WT and Sqrdl^ΔN/ΔN MEFs were adsorbed on the bottom of 8-well μ-Slides (Ibidi, Martinsreid, Germany) coated with poly-D-lysine (Sigma-Aldrich, St. Luis, Mo., USA), after which they were stained with 10 nM TMRE (Biotium, Fremont, Calif., USA) and 50 nM MitoTracker Green FM (Thermo Fisher Scientific, Waltham, Mass., USA) at 25° C. for 10 min. TMRE fluorescence intensity (561 nm excitation and 605±15 nm emission), which is positive with MitoTracker Green FM fluorescence, was measured in individual mitochondria by using the region of interest (ROI) tool of the confocal laser scanning microscope (Nikon C2 plus, with NIS elements version 5.01 software). […] Specifically, of 200 ROIs, the top 30 ROIs were selected for analysis of TMRE fluorescence intensity in response to TMPD/ascorbate, and their means and s.d. values were calculated.

[3] = tested on: isolated mitochondria from WT and Sqrdl^ΔN/ΔN MEFs; experiment: Quantification of sulfur metabolites in isolated mitochondria (LC-ESI-MS/MS); set-up: species or system mouse; settings: addition to isolated mitochondria
Experimental: Yeast, mouse tissues, and MEFs were analyzed for the low-molecular-weight analytes cysteine (CysSH), cysteine hydropersulfide (CysSSH), glutathione (GSH), glutathione hydropersulfide (GSSH), bis-S (H2S), bis-SS (HSSH), cystine (CysSSCys), oxidized glutathione, or glutathione disulfide (GSSG), oxidized glutathione trisulfide (GSSSG), and thiosulfate (HS2O3^−) as previously described^9. Briefly, samples were homogenized with a Psychotron homogenizer (Microtec Co. Ltd.) or sonicator in ice-cold methanol in the presence of 5 mM β-(4-hydroxyphenyl)ethyl iodoacetamide (HPE-IAM). Homogenates were incubated at 37° C. for 20 min and then centrifuged at 15,000 rpm at 4° C. for 10 min. Supernatants were separated and diluted 10 times with 0.1% formic acid. Stable isotope-labeled internal standards dissolved in 0.1% formic acid solution were added to the samples to a final concentration of 25 nM. A sample of 10 μl was injected into the LC-ESI-MS/MS instrument (LCMS-8060). Various persulfide derivatives were identified and quantified by means of MRM, as previously described^9. Cell pellets were reconstituted in 0.1% SDS in PBS buffer, homogenized by sonication, and centrifuged again at 15,000 rpm at 4° C. for 10 min. […] Each analyte concentration was normalized to the measured protein concentration. […]

[4] = tested on: fission yeast (Schizosaccharomyces pombe); experiment: Chronological life span of yeast; format: cell-based
Experimental: Three single colonies derived from each strain were analyzed, as previously described^31 with slight modification. Yeast cells were cultured in SC medium (at a starting OD600 of 0.1) at 30° C. with shaking. Measurement of cell viability began after 72 h of culture (day 0) and continued every 2-3 days by plating a fraction of the culture onto a fresh YPD plate (2% glucose, 0.5% yeast extract, 1% peptone, and 2% agar) to determine the number of colony-forming units (CFUs). […] Cell survival rates were calculated by normalizing the CFUs at each time point to the CFUs at day 0.

[5] = tested on: mitochondria isolated from livers of WT and Sqrdl^ΔN/ΔN mice; experiment: Oxygen consumption of liver mitochondria (Clark-type electrode); set-up: species or system mouse; settings: 10-μM NaHS supply
Experimental: Mitochondria were isolated from 4- to 6-week-old mice by using two-step differential centrifugations, as previously described^41 with minor modifications. In brief, after gallbladder removal, fresh liver specimens weighing 1.0-1.5 g were minced and homogenized in ice-cold isolation buffer (10 mM Tris/MOPS, 1 mM EGTA/Tris, and 200 mM sucrose, pH 7.4). When liver weight was less than 1 g, livers were pooled. Homogenate were centrifuged at 600 g and 4° C. for 10 min to remove cellular debris and nuclei. Supernatants containing mitochondrial fraction were then centrifuged at 7,000 g at 4° C. for 10 min. Obtained mitochondrial pellets were washed with new isolation buffer and underwent centrifugation again (7,000 g for 10 min). […] The protein concentration was determined with the BCA Protein Assay Kit (Thermo Fisher Scientific). Absorbance at 562 nm was measured with NanoDrop 2000 (Thermo Fisher Scientific).
Mitochondrial oxygen consumption was measured by using a Clark-type electrode (Oxytherm system; Hansatech Instruments, Norfolk, UK). […] The OCR through complex I was measured as a mitochondrial basic function by sequentially adding 2.5 mM malate/5 mM glutamate, 150 μM ADP, and 100 nM carbonyl cyanide 4-(trifluoromethoxy) phenylhydrazone (FCCP). The respiratory control index (RCI) was calculated by using the ratio of state 3 to state 4. […]

[6] = WT MEFs, increasing concentrations in the culture media, SQR-dependent

In the case of C=C1[C@@H]2CC[C@H]3[C@]4(C)C[C@H](O[C@@H]5O[C@H](CO)[C@@H](OS(=O)(=O)O)[C@H](OS(=O)(=O)O)[C@H]5OC(=O)CC(C)C)CC(C(=O)O)(C(=O)O)[C@H]4CC[C@]3(C2)[C@H]1O [CATR, carboxyatractyloside], the mitochondrial membrane potential (WT and Sqrdl^ΔN/ΔN MEFs; Sqrdl^ΔN/ΔN MEFs, CATR treatment) is reported as “did not observe this increase” and the mitochondrial membrane potential (WT and Sqrdl^ΔN/ΔN MEFs; WT MEFs, CATR treatment) is reported as “increased the membrane potential”.
In the case of [Cl][Cd][Cl] [Cd, CdCl2], the “susceptibility of yeast growth to the substance” value [1] is reported as “enhanced susceptibility to Cd toxicity”.
In the case of N[C@@H](CCC(=O)N[C@@H](CSSSC[C@H](NC(=O)CC[C@H](N)C(=O)O)C(=O)NCC(=O)O)C(=O)NCC(=O)O)C(=O)O [GSSSG, glutathione trisulfide], the “membrane potential of isolated mitochondria” value [2] is reported as “increased the membrane potential” and the “levels of glutathione hydropersulfide (GSSH)” value [3] is reported as “increased levels of glutathione hydropersulfide (GSSH)”.
[Na+].[Na+].[S-][S-] [Na2S2, sodium disulfide] was tested, and the chronological lifespan ([4]; SQR-deficient yeast) was “no effect”, the chronological lifespan ([4]; WT yeast) was “extended the lifespan” and the mitochondrial membrane potential (WT and Sqrdl^ΔN/ΔN MEFs; [6]) was “elevation of membrane potential”. For the same compound, the “membrane potential of isolated mitochondria” value [2] was “results that were quite similar to those induced by NaHS”.
For S [NaHS, sodium hydrosulfide], the chronological lifespan ([4]; SQR-deficient yeast) was “no effect”, the chronological lifespan ([4]; WT yeast) was “extended the lifespan” and the mitochondrial membrane potential (WT and Sqrdl^ΔN/ΔN MEFs; [6]) was “elevation of membrane potential”. The “membrane potential response to succinate, malate, and glutamate and to TMPD with ascorbate” value ([2]; 3 μM NaHS, isolated mitochondria) was “retained the membrane potential response”, the “concentration at which the membrane potential response was halted” value ([2]; isolated mitochondria, data not shown) was “more than 30 μM” and the “membrane potential of isolated mitochondria” value [2] was “generated the membrane potential in an SQR-dependent manner”. For the same compound, the oxygen consumption [5] was “induced a small oxygen consumption only in WT mitochondria”.
For COc1[nH]c(=O)c(C(=O)[C@@H](C)C[C@H](C)[C@@H](Cl)CCl)c(O)c1OC [atpenin A5], the “effect on CATR-induced increase in membrane potential” value (“effect on CATR-induced increase” below) (WT and Sqrdl^ΔN/ΔN MEFs; WT MEFs) was “not significantly affected”.
With N[C@@H](CSSC[C@H](N)C(=O)O)C(=O)O [cystine] the mitochondrial membrane potential (WT and Sqrdl^ΔN/ΔN MEFs; [6]) was “elevation of membrane potential”.
C=C(C)[C@H]1Cc2c(ccc3c2O[C@@H]2COc4cc(OC)c(OC)cc4[C@@H]2C3=O)O1 [rotenone] was tested, and the “effect on CATR-induced increase” value (WT and Sqrdl^ΔN/ΔN MEFs; WT MEFs) was “not significantly affected”.
With antimycin A the “effect on CATR-induced increase” value (WT and Sqrdl^ΔN/ΔN MEFs; WT MEFs) was “reduced”.
